Patent publication US9101600B2, “Compounds as RORγt modulators and uses thereof” (New York University, priority 2010, dated 2015)

Target: RORγ/γt (Mus musculus, UniProt P51450, T352K)
Assay: RORγ/γt-luc reporter S2 cell assay / HTS (firefly luciferase)
Details: for Curve Class: RORγ/γt HTS concentration response curve class
Text: The Drosophila S2 cell line was originally purchased from Invitrogen and was maintained in Schneider's medium supplemented with 10% heat-inactivated bovine fetal calf serum and antibiotics (Invitrogen). Gal4 DNA binding domain (G4 DBD) corresponding to amino acids 1 through 147 of Gal4 protein was PCR amplified to make a fusion construct with mouse RORγt (amino acids 79 to the carboxyl terminal end) lacking its DNA binding domain. The resulting chimeric gene was subcloned into the copper inducible pMT/V5-His A vector (available from Invitrogen). In a similar manner, Gal4 fusion constructs were prepared with mouse RORα (amino acids 142 to end) or Drosophila DHR3 (amino acids 120 to end).
In order to generate stable cell lines, cells were co-transfected with pMT-G4 DBD-RORγt, pMT-G4 DBD-RORα, pMT-G4 DBD-DHR3, or pMT-G4DBDVP16 and pHygro plasmids (Invitrogen) and screened for resistant colonies in the presence of hygromycin (0.3 mg/mL). More than 150 independent RORγ stable clones with luciferase reporters (pMt-RORγ_luc) were tested for their suitability for the high-throughput screening (HTS) based on the following criteria: high signal-to background ratio in 384- and 1,536-well plates, their high induction rate upon the addition of copper, and RORγ/γt specificity probed by the dsRORγ- or RORγ/γt antagonist-mediated suppression. Positive clones were further transfected with pUAST-firefly luciferase, polIII-Renilla luciferase, and pCoPuro (Iwaki, Figuera et al. 2003) (“Rapid selection of Drosophila S2 cells with the puromycin resistance gene.” Biotechniques 35(3): 482-4, 486.) and selected with puromycin (2.5 ug/ml). […] Using similar methods, stable clones with genomic integration of the luciferase reporters and other reporters were generated such as pMT-RORα_luc, pMT-DHR3_luc, or pMT-VP16_luc.
600 G4 DBD-RORγ/γt-luc reporter (#25) or G4 DBD-VP16-luc reporter cells were distributed into each well of 1,536-well white bottom plates in 4 μl S2 cell culture volume containing hygromicin (300 μg/ml) and puromycin (2 μg/ml). Small compounds in seven different concentrations range from 46 μM to 1.7 nM were pin-transferred (23 nl) by a robot (Inglese et al., 2006, Proc. Natl. Acad. Sci. 103:11473-8). […] After 20-hour incubation at ambient temperature, 1.5 μl firefly luciferase detection mix was added and the luciferase activities were measured in 10 min. ViewLux luminometers were used for measuring luciferase signal.
Since their cognate DNA binding sites were not well characterized, the DNA binding domains (DBD) of RORγ/γt, RORα(mouse homolog for PORγ), and DHR3 (Drosophila orthologue for ROR family proteins) were replaced with the heterologous yeast GAL4 DBD. The transcriptionally active domain of general transcriptional activator VP16 was also fused with GAL4 DBD.

RORγ/γt, sequence (P51450 with tags, fused parts or gaps T352K): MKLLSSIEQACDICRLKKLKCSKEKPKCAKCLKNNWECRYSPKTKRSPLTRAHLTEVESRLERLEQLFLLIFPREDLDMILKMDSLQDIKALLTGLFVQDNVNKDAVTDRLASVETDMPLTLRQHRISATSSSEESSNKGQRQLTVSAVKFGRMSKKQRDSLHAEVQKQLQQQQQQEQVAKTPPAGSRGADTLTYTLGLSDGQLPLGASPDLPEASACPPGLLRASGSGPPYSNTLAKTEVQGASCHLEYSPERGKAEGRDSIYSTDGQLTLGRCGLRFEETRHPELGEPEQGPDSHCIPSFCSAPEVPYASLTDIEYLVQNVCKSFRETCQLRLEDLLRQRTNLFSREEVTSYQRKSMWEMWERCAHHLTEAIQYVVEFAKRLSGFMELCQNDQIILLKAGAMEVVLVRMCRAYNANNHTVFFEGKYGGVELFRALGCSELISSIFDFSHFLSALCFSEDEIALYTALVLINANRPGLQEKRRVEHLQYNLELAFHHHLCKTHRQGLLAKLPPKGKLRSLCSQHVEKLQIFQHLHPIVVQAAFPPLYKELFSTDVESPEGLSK

Compound	IC50 [µM]	80% Inhib. @ (RORγ/γt reporter, S2 cells, concentration for 80% inhibition) [µM]	Curve Class	AC50 [µM]
C=C1NN=C(c2cc(-c3cccc(OCC)c3)nc3ccccc23)N1CC [MLS000324596-02]	2.11	3.293	–	–
CCOC(=O)[C@@H]1[C@H]2COc3ccc(Br)cc3[C@@H]2N2C(=O)N(c3ccc(C(F)(F)F)cc3)C(=O)[C@@]12C [MLS001066025-01]	–	–	4	–
CCOC(=O)[C@@H]1[C@H]2COc3ccc(Br)cc3[C@@H]2N2C(=O)N(c3cccc(F)c3)C(=O)[C@@]12C [MLS001066026-01]	–	–	−2.2	17.8
CCOC(=O)[C@@H]1[C@H]2COc3ccc(Br)cc3[C@@H]2N2C(=O)N(c3ccc(C(F)(F)F)cc3)C(=O)[C@]12C [MLS001066035-01]	–	–	4	3.98
CCOC(=O)[C@@H]1[C@H]2COc3ccc(Br)cc3[C@H]2N2C(=O)N(c3cccc(F)c3)C(=O)[C@]12C [MLS001066046-01]	–	–	4	0.0126
CCOC(=O)[C@@H]1[C@H]2COc3ccc(Br)cc3[C@H]2N2C(=O)N(c3cccc(Cl)c3)C(=O)[C@]12C [MLS001066096-01]	–	–	−2.2	8.91
CCOC(=O)[C@@H]1[C@H]2COc3ccccc3[C@H]2N2C(=O)N(c3ccc(OC)cc3)C(=O)[C@]12C [MLS001066225-01]	–	–	4	–
CCOC(=O)[C@@H]1[C@H]2COc3cc(OC)ccc3[C@@H]2N2C(=O)N(c3ccc(F)cc3)C(=O)[C@]12C [MLS001066228-01]	–	–	4	0.141
CCOC(=O)[C@@H]1[C@H]2COc3cc(OC)ccc3[C@@H]2N2C(=O)N(c3ccc(C(F)(F)F)cc3)C(=O)[C@]12C [MLS001066230-01]	–	–	4	–
CCOC(=O)[C@@H]1[C@H]2COc3cc(OC)ccc3[C@@H]2N2C(=O)N(c3cccc(F)c3)C(=O)[C@@]12C [MLS001066231-01]	–	–	−2.1	10
CCOC(=O)[C@@H]1[C@H]2COc3cc(OC)ccc3[C@H]2N2C(=O)N(c3ccc(F)cc3)C(=O)[C@]12C [MLS001066238-01]	–	–	4	–
CCOC(=O)[C@@H]1[C@H]2COc3cc(OC)ccc3[C@@H]2N2C(=O)N(c3cccc(F)c3)C(=O)[C@]12C [MLS001066241-01]	–	–	4	3.98
CCOC(=O)[C@@H]1[C@H]2COc3ccc(Br)cc3[C@@H]2N2C(=O)N(c3ccccc3)C(=O)[C@]12C [MLS001066242-01]	–	–	4	0.0224
CCOC(=O)[C@@H]1[C@H]2COc3ccc(Br)cc3[C@@H]2N2C(=O)N(c3ccc(F)cc3)C(=O)[C@]12C [MLS001066243-01]	–	–	4	0.891
CCOC(=O)[C@@H]1[C@H]2COc3ccc(Br)cc3[C@@H]2N2C(=O)N(c3ccc(Br)cc3)C(=O)[C@]12C [MLS001066244-01]	–	–	4	0.0056
CCOC(=O)[C@@H]1[C@H]2COc3cc(OC)ccc3[C@H]2N2C(=O)N(c3ccc(F)cc3)C(=O)[C@@]12C [MLS001066248-01]	–	–	4	–
CCOC(=O)[C@@H]1[C@H]2COc3cc(OC)ccc3[C@H]2N2C(=O)N(c3ccc(C(F)(F)F)cc3)C(=O)[C@@]12C [MLS001066250-01]	–	–	4	4.47
CCOC(=O)[C@@H]1[C@H]2COc3ccc(Br)cc3[C@H]2N2C(=O)N(c3ccc(F)cc3)C(=O)[C@]12C [MLS001066253-01]	–	–	4	–
CCOC(=O)[C@@H]1[C@H]2COc3ccc(Br)cc3[C@H]2N2C(=O)N(c3ccc(Br)cc3)C(=O)[C@]12C [MLS001066254-01]	–	–	4	1.12
CCOC(=O)[C@@H]1[C@H]2COc3ccccc3[C@H]2N2C(=O)N(c3cccc(F)c3)C(=O)[C@]12C [MLS001066256-01]	–	–	4	–
CCOC(=O)[C@H]1[C@H]2COc3cc(OC)ccc3[C@@H]2N2C(=O)N(c3ccc(Br)cc3)C(=O)[C@@]12C [MLS001066259-01]	–	–	4	–
CCOC(=O)[C@@H]1[C@H]2COc3ccc(Br)cc3[C@H]2N2C(=O)N(c3ccc(F)cc3)C(=O)[C@@]12C [MLS001066263-01]	–	–	4	0.0045
CCOC(=O)[C@@H]1[C@H]2COc3cc(OC)ccc3[C@@H]2N2C(=O)N(c3ccc(Cl)cc3)C(=O)[C@@]12C [MLS001066268-01]	–	–	−2.1	8.91
CCOC(=O)[C@@H]1[C@H]2COc3cc(OC)ccc3[C@@H]2N2C(=O)N(c3cccc(C)c3)C(=O)[C@@]12C [MLS001066270-01]	–	–	−3	12.6
CCOC(=O)[C@@H]1[C@H]2COc3ccccc3[C@H]2N2C(=O)N(c3ccc(C(F)(F)F)cc3)C(=O)[C@]12C [MLS001066275-01]	–	–	4	5.01
CCOC(=O)[C@@H]1[C@H]2COc3ccccc3[C@@H]2N2C(=O)N(c3cccc(Cl)c3)C(=O)[C@@]12C [MLS001066276-01]	–	–	−3	17.8
CCOC(=O)[C@@H]1[C@H]2COc3cc(OC)ccc3[C@@H]2N2C(=O)N(c3ccc(OC)cc3)C(=O)[C@]12C [MLS001066279-01]	–	–	4	–

Compound	IC50 [µM]	80% Inhib. @ (RORγ/γt reporter, S2 cells, concentration for 80% inhibition) [µM]	Curve Class	AC50 [µM]
CCOC(=O)[C@@H]1[C@H]2COc3cc(OC)ccc3[C@@H]2N2C(=O)N(c3cccc(Cl)c3)C(=O)[C@@]12C [MLS001066281-01]	–	–	−2.2	11.2
CCOC(=O)[C@@H]1[C@H]2COc3ccccc3[C@@H]2N2C(=O)N(c3cccc(Cl)c3)C(=O)[C@]12C [MLS001066286-01]	–	–	4	–
CCOC(=O)[C@@H]1[C@H]2COc3cc(OC)ccc3[C@@H]2N2C(=O)N(c3cccc(Cl)c3)C(=O)[C@]12C [MLS001066291-01]	–	–	4	0.112
CCOC(=O)[C@@H]1[C@H]2COc3ccc(Br)cc3[C@@H]2N2C(=O)N(c3ccc(OC)cc3)C(=O)[C@]12C [MLS001066294-01]	–	–	4	0.112
CCOC(=O)[C@@H]1[C@H]2COc3cc(OC)ccc3[C@H]2N2C(=O)N(c3ccc(C)cc3)C(=O)[C@@]12C [MLS001066297-01]	–	–	4	0.891
CCOC(=O)[C@@H]1[C@H]2COc3cc(OC)ccc3[C@H]2N2C(=O)N(c3cccc(Cl)c3)C(=O)[C@]12C [MLS001066301-01]	–	–	4	0.631
CCOC(=O)[C@@H]1[C@H]2COc3ccc(Br)cc3[C@H]2N2C(=O)N(c3ccc(C)cc3)C(=O)[C@]12C [MLS001066302-01]	–	–	4	–
CCOC(=O)[C@@H]1[C@H]2COc3ccccc3[C@@H]2N2C(=O)N(c3cccc(C)c3)C(=O)[C@]12C [MLS001066305-01]	–	–	4	0.891
CCOC(=O)[C@@H]1[C@H]2COc3ccccc3[C@H]2N2C(=O)N(c3cccc(Cl)c3)C(=O)[C@@]12C [MLS001066306-01]	–	–	4	7.08
CCOC(=O)[C@H]1[C@H]2COc3cc(OC)ccc3[C@@H]2N2C(=O)N(c3ccc(Cl)cc3)C(=O)[C@@]12C [MLS001066308-01]	–	–	4	–
CCOC(=O)[C@@H]1[C@H]2COc3cc(OC)ccc3[C@H]2N2C(=O)N(c3cccc(Cl)c3)C(=O)[C@@]12C [MLS001066311-01]	–	–	4	10
CCOC(=O)[C@@H]1[C@H]2COc3ccc(Br)cc3[C@H]2N2C(=O)N(c3ccc(Cl)cc3)C(=O)[C@@]12C [MLS001066313-01]	–	–	4	0.0447
CCOC(=O)[C@@H]1[C@H]2COc3cc(OC)ccc3[C@@H]2N2C(=O)N(c3ccc(Br)cc3)C(=O)[C@@]12C [MLS001066318-01]	–	–	−2.1	7.94
CCOC(=O)[C@@H]1[C@H]2COc3cc(OC)ccc3[C@@H]2N2C(=O)N(c3ccc(C(F)(F)F)cc3)C(=O)[C@@]12C [MLS001066319-01]	–	–	−3	15.8
CCOC(=O)[C@H]1[C@H]2COc3cc(OC)ccc3[C@@H]2N2C(=O)N(c3cccc(Cl)c3)C(=O)[C@@]12C [MLS001066321-01]	–	–	4	6.31
CCOC(=O)[C@@H]1[C@H]2COc3ccccc3[C@@H]2N2C(=O)N(c3ccc(Cl)cc3)C(=O)[C@]12C [MLS001066434-01]	–	–	4	3.16
CCOC(=O)[C@@H]1[C@H]2COc3ccccc3[C@@H]2N2C(=O)N(c3ccc(C)cc3)C(=O)[C@]12C [MLS001066443-01]	–	–	4	3.98
CCOC(=O)[C@@H]1[C@H]2COc3ccccc3[C@H]2N2C(=O)N(c3ccc(Cl)cc3)C(=O)[C@]12C [MLS001066444-01]	–	–	4	0.0071
CCOC(=O)[C@@H]1[C@H]2COc3ccccc3[C@H]2N2C(=O)N(c3ccc(C)cc3)C(=O)[C@]12C [MLS001066453-01]	–	–	4	0.282
CCOC(=O)[C@@H]1[C@H]2COc3ccccc3[C@H]2N2C(=O)N(c3ccc(Cl)cc3)C(=O)[C@@]12C [MLS001066454-01]	–	–	4	11.2
CCOC(=O)[C@@H]1[C@H]2COc3ccccc3[C@@H]2N2C(=O)N(c3ccccc3)C(=O)[C@@]12C [MLS001066482-01]	–	–	−2.1	12.6
CCOC(=O)[C@@H]1[C@H]2COc3ccccc3[C@@H]2N2C(=O)N(c3ccc(F)cc3)C(=O)[C@@]12C [MLS001066483-01]	–	–	−2.2	12.6
CCOC(=O)[C@@H]1[C@H]2COc3ccccc3[C@@H]2N2C(=O)N(c3ccccc3)C(=O)[C@]12C [MLS001066492-01]	–	–	4	0.141
CCOC(=O)[C@@H]1[C@H]2COc3ccccc3[C@H]2N2C(=O)N(c3ccccc3)C(=O)[C@]12C [MLS001066502-01]	–	–	4	0.794
CCOC(=O)[C@@H]1[C@H]2COc3ccccc3[C@H]2N2C(=O)N(c3ccc(F)cc3)C(=O)[C@]12C [MLS001066503-01]	–	–	4	2.51
CCOC(=O)[C@@H]1[C@H]2COc3ccccc3[C@@H]2N2C(=O)N(c3ccc(OC)cc3)C(=O)[C@@]12C [MLS001066514-01]	–	–	4	14.1
CCOC(=O)[C@@H]1[C@H]2COc3ccccc3[C@@H]2N2C(=O)N(c3ccc(Cl)cc3)C(=O)[C@@]12C [MLS001066523-01]	–	–	−3	15.8
